Experimental data as given in patent publication US6423689B1, “Peptidyl calcium channel blockers” (Warner-Lambert Company, priority 1997, dated 2002).

What was measured:
[1] = molecular target: T1, N-type Ca2+ channels in IMR-32 cells (Homo sapiens, UniProt Q00975); assay: Inhibition of N-type calcium flux in IMR-32 cells (Indo-1 fluorescence, nitrendipine present); assay type: cell-based; conditions: for inhibition at 1 µM / inhibition at 10 µM: IMR-32; for IC50: IMR-32 cells, 5 μM nitrendipine, K+ depolarization
T1 construct: host or cells: IMR-32 cells, differentiated with dibutyryl cAMP and bromodeoxyuridine
Method in brief: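 With L-type flux blocked by 5 μM nitrendipine, N-type Ca2+ entry was read as the Indo-1 emission ratio (400/490 nm, excitation 350 nm) at 30° C after KCl depolarization.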

[2] = molecular target: T2, N-type Ca2+ channels in superior cervical ganglion (SCG) neurons (Rattus norvegicus, UniProt Q02294); assay: Whole-cell voltage clamp, N-type Ca2+ current in SCG neurons; assay type: cell-based; conditions: for IC50: read-out: Inhibition of N-type Ca2+ Current IC50
T2 construct: from tissue
T2 sequence (Q02294 whole entry): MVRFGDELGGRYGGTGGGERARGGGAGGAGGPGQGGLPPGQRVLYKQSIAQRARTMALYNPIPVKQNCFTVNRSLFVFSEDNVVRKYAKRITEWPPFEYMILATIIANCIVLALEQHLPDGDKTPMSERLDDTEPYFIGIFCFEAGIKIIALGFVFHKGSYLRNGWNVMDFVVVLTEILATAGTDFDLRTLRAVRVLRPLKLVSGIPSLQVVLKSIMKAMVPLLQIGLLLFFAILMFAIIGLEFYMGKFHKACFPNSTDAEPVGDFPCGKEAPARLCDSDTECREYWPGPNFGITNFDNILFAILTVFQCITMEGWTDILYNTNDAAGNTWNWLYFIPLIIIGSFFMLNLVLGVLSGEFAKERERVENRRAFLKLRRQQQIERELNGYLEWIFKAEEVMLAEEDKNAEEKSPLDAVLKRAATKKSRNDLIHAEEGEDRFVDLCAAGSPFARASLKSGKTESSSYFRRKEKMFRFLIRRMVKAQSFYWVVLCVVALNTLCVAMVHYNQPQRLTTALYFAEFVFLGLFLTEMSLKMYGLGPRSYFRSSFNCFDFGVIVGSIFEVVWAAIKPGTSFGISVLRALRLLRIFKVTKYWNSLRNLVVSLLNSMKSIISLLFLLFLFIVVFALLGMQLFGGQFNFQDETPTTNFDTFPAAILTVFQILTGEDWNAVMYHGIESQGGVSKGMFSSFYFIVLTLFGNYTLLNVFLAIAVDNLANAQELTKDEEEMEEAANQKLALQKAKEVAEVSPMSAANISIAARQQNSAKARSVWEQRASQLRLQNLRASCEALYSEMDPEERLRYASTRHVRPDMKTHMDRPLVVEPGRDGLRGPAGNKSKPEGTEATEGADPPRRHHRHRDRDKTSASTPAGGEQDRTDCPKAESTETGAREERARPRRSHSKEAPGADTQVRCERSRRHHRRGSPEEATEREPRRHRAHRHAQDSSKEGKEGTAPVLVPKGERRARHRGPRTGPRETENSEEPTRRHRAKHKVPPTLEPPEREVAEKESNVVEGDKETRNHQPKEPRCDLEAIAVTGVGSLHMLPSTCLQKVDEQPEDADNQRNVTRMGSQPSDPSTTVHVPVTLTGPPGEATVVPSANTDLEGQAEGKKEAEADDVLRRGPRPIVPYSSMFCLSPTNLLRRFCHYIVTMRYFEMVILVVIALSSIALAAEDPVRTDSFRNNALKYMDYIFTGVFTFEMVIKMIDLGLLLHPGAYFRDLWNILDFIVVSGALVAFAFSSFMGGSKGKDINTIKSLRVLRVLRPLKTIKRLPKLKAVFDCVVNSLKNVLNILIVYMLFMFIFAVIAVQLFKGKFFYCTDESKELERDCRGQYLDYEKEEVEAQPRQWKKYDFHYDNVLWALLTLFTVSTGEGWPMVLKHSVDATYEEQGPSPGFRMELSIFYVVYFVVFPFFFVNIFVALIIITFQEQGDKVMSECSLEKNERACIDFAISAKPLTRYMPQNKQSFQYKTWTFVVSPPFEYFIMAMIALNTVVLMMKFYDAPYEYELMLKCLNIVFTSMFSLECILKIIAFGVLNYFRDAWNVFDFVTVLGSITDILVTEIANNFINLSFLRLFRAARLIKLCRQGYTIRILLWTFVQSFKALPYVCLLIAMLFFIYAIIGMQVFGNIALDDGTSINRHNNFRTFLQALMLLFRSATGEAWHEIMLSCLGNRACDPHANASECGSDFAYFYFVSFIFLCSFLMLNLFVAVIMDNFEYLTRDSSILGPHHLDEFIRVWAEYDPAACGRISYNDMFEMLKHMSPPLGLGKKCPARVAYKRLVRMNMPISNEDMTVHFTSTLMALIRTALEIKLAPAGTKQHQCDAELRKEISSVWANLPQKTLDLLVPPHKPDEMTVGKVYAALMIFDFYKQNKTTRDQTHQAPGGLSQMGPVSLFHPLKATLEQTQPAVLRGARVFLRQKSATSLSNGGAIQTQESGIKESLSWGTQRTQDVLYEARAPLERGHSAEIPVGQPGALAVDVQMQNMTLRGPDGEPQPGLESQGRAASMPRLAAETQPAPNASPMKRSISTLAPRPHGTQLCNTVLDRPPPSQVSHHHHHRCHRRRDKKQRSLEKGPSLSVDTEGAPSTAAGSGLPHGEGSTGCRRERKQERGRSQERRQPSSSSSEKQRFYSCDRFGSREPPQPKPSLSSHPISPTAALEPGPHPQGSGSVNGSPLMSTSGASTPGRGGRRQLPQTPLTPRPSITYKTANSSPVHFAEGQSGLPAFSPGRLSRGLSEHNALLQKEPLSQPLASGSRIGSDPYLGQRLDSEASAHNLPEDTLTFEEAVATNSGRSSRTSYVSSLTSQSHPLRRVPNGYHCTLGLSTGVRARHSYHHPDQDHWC
T2 sequence (P54290 25-944 partner limits assumed): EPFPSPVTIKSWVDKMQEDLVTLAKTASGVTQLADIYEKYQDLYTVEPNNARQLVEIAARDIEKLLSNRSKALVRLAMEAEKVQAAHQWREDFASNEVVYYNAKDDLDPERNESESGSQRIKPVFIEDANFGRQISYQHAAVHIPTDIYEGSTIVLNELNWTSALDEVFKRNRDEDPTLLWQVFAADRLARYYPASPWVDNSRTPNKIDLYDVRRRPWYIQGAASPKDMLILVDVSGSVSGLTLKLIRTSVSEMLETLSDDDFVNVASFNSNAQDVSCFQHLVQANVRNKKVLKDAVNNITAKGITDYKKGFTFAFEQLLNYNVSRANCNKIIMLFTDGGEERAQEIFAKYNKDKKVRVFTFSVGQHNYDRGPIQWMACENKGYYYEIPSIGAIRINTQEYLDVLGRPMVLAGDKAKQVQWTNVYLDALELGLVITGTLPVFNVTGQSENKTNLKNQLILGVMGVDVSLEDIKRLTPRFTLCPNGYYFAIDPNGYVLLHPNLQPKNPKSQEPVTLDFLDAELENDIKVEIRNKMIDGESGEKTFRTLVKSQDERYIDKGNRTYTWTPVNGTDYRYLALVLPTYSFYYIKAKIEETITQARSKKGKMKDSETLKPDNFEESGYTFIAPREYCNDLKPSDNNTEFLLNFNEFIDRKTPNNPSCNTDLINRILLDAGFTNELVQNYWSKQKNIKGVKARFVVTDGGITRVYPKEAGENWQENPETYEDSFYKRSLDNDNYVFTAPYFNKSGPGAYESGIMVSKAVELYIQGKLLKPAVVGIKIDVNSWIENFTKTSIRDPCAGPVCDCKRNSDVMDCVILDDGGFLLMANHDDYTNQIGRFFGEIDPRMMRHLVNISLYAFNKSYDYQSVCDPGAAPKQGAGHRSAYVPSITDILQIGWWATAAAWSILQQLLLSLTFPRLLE
T2 sequence (P54290 945-1091 partner limits assumed): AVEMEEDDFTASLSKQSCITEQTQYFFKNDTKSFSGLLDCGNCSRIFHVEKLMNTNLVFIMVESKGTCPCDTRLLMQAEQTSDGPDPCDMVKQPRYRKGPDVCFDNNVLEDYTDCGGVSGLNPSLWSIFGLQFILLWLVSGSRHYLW
T2 sequence (P54287 whole entry partner): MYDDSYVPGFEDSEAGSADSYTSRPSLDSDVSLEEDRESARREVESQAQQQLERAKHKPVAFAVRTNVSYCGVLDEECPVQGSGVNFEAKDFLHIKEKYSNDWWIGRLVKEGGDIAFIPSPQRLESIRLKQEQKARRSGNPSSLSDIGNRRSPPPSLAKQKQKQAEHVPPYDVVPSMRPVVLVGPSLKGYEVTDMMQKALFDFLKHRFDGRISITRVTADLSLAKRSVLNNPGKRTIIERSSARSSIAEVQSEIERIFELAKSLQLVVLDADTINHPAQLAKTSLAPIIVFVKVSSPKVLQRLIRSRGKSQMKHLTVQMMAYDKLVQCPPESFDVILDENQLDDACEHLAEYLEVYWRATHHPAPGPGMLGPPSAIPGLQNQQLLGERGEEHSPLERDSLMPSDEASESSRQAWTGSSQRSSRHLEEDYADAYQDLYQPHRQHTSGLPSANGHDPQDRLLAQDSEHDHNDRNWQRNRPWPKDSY
Method in brief: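 Whole-cell voltage clamp of acutely trypsin-dissociated rat SCG neurons, with TEA/choline external solution (2 mM Ca2+) and Cs-methanesulfonate pipette solution. Currents evoked by 150 ms steps to +20 mV from −65 to −55 mV holding, every 40 s; compounds applied locally, effect as % inhibition of control amplitude.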

[3] = system: K+ channels in superior cervical ganglion (SCG) neurons; assay: Whole-cell voltage clamp, K+ current in SCG neurons; assay type: cell-based, rat; conditions: 10 μM
Experimental: (§1) Electrophysiological techniques were used to measure the effects of experimental compounds on voltage-gated Ca^2+, Na^+ and K^+ channels. […] Sodium and potassium channel currents were measured from acutely dissociated SCG neurons.
(§2) Dissociation of the neurons from the ganglia was accomplished using a 30 to 45 minute treatment in 0.25% trypsin, similar to methods outlined in Higgins, et al. [see Higgins D., et al. “Tissue culture of mammalian autonomic neurons.” In Banker G. and Goslin K. (Eds), Culturing Nerve Cells, Cambridge, Mass., MIT Press (1991)].
(§3) Ca^2+, Na^+ and K^+ channel currents in SCG neurons were measured using conventional single electrode whole-cell voltage-clamp techniques, outlined in Hamill, et al., (see Hamill O.P., et al. “Improved patch-clamp techniques for high resolution current recordings from cells and cell-free membrane patches”. Pflugers Arch. 1981;391:85-100) For Ca^2+ channel experiments, the external bathing solution contained tetraethylammonium chloride (100 mM), choline chloride (52 mM), NaCl (15 mM), HEPES (10 mM), glucose (5.6 mM), CaCl2 (2 mM), and MgCl2 (0.8 mM) pH 7.35 with KOH; with the internal pipette solution containing cesium methane sulfonate (140 mM), EGTA (10 mM), and HEPES (10 mM), supplemented with 5 mM Mg^2+ -ATP on the day of the experiment, pH 7.4 with CsOH. For Na^+ and K^+ channel experiments, the external bathing solution contained NaCl (150 mM), KCl (5 mM), MgCl2 (1.1 mM), CaCl2 (2.6 mM), Na-HEPES (10 mM), and glucose (10 mM), pH 7.4; with the internal pipette solution containing KCl (80 mM), K-gluconate (50 mM), HEPES (10 mM), and EGTA (10 mM), pH 7.4 with KOH. Experimental compounds were diluted into the external solution and applied to the soma of cells by local perfusion from large diameter (20-50 μm) glass micropipettes or from a U-tube applicator.
(§4) For Na^+ and K^+ channel currents, following the determination of the I/V relationship for each cell in control solution, currents were evoked from a holding potential between −65 and −55 mV by stepping every 10 sec to a test potential of either 0 mV for Na^+ or +50 mV for K^+ current for a duration of 35 msec. Peak inward current was measured for Na^+ and sustained current for K^+ channel currents. […] Test compounds were applied until steady-state block was achieved. Data were expressed as percent inhibition of control amplitudes for Na^+ and K^+ channel currents.

[4] = system: Na+ channels in superior cervical ganglion (SCG) neurons; assay: Whole-cell voltage clamp, Na+ current in SCG neurons; assay type: cell-based, rat; conditions: 10 μM
Experimental: as §1, §2, §3, §4

[5] = molecular target: T3, L-type Ca2+ channels in A10 cells (Rattus norvegicus, UniProt P22002); assay: Inhibition of L-type calcium flux in A10 cells (FLIPR); assay type: cell-based
T3 construct: which endogenously expresses L-type calcium channels; host or cells: A10 rat aortic smooth muscle cells
Experimental: Measurement of L-type Ca^2+ Channel Blocking Potencies of Compounds in A10 cells
Calcium flux through voltage-sensitive calcium channels was assessed by time-resolved monitoring of the fluorescence of pre-loaded calcium-sensitive dyes using FLIPR, a fluorescent image plate reader (Molecular Devices Co.). The A10 smooth muscle cell line derived from embryonic thoracic aorta of the DBIX rat (ATCC, CRL-1476) which endogenously expresses L-type calcium channels. The growth media for A10 cells was Ham's F12/DME high glucose (Irvine Scientific, 9052), supplemented with 20% fetal bovine serum (HyClone Labs, A-1115-L), and 1% each of L-glutamine and antibiotic-antimycotic (same source as above).
Cells were grown to confluency and replated on black-sided 96-well plates (Costar, 3603) for use in FLIPR. Two days after replating, growth media was removed and cells were loaded at 37° C. with 100 μL media containing 1 μM Oregon Green 488 Bapta-1 dye (Molecular Probes, O-6807) for 1 to 3 hours. The dye-containing media was then washed away with buffer (composition in mM: 1.25 CaCl2, 1.2 MgSO4, 11 glucose, 10 HEPES, 3.0 KCl, 137.0 NaCl, pH 7.4 with Tris base) in a Denley Cellwash (Labsystems, CW018B). The residual buffer volume was adjusted to 50 μL. A 5 minute drug-pre-incubation period at 35° C. was initiated when 50 μL of drug-containing buffer was pipetted into the cell plate with the 96-well pipettor integrated in the FLIPR apparatus. Fluorescent counts were monitored at 20 second intervals for 360 seconds, beginning 60 seconds prior to the delivery of drug-containing buffer. Following drug addition, 100 μL aliquots of a high K^+, depolarizing stimulus (composition in mM: 1.25 CaCl2, 1.2 MgSO4, 11 glucose, 10 HEPES, 140.0 KCl, pH 7.4 with Tris base) were added to each well and fluorescence was monitored at 1 second intervals for 120 seconds, beginning 10 seconds prior to the stimulus addition. CCD camera exposure time was 0.4 seconds, laser excitation was at 488 nm with a power of 0.2-0.5W, and a 510 to 560 nm bandpass interference filter preceded the camera.
Data was analyzed as a summation of fluorescent counts above basal during the stimulation period (an approximation of area under the curve), after normalizing the data with a spatial uniformity correction (for variations in laser illumination and cell density) and a negative control correction (zero calcium increase defined as the fluorescence reading in the presence of saturating pharmacologic block of the respective calcium channel). Drug effects were expressed as percent inhibition of fluorescence from an average of 8 K^+-stimulated wells which were pre-treated in the drug incubation period with buffer only.
In the A10 cells, the pharmacologic agent used to define zero calcium influx was nitrendipine (RBI, N-144), at a final concentration of 1.0×10^−6 M.

Structure (SMILES) | inhibition at 1 µM [1] [%] | inhibition at 10 µM [1] [%] | IC50 [1] [nM] | inhibition at 10 µM [2] [%] | Inhibition of K+ Current, % Inhibition at 10 μM [3] [%] | Inhibition of Na+ Current, % Inhibition at 10 μM [4] [%] | melting point [°C] | IC50 [2] [nM] | IC50 [5] [nM] | Inhibition of Calcium Flux in IMR-32 Cells % Inhibition at 1 μM ([1]; 1 μM) [%] | Inhibition of Calcium Flux in IMR-32 Cells % Inhibition at 10 μM ([1]; 10 μM) [%]
CC(C)C[C@H](NC(=O)N1CCCCCC1)C(=O)N[C@](C)(Cc1ccc(OCc2ccccc2)cc1)C(=O)OC(C)(C)C [Example 11B, 2(R)-{2(S)-[(Azepane-1-carbonyl)-amino]-4-methyl-pentanoylamino}-3-(4-benzyloxy-phenyl)-2-methyl-propionic acid tert-butyl ester] | 35 | 80 | 2300 | 17 | 46 | 48 | 62 to 66 | – | – | – | –
CCC(C)[C@H](NC(=O)N1CCCCCC1)C(=O)N[C@@H](Cc1ccc(OCc2ccccc2)cc1)C(=O)OC(C)(C)C (stereo partly drawn) [Example 5, (S)-2-{(S)-2-[(Azepane-1-carbonyl)-amino]-3-methyl-pentanoylamino}-3-(4-benzyloxy-phenyl)-propionic acid tert-butyl ester] | 60 | 94 | 820 | 70 | 13 | 10 | 53 to 57 | 620 | – | – | –
COc1ccc(C[C@H](NC(=O)[C@H](CC(C)C)NC(=O)N2CCCCCC2)C(=O)OC(C)(C)C)cc1 [Example 13, [S-(R*,R*)]-2-{2-[(Azepane-1-carbonyl)-amino]-4-methyl-pentanoylamino}-3-(4-methoxy-phenyl)-propionic acid tert-butyl ester] | 40 | 86 | 1700 | – | – | – | 105 to 106 | – | – | – | –
CC(C)C[C@H](NC(=O)N1CCCCCC1)C(=O)N[C@@H](Cc1ccc(C#Cc2ccccn2)cc1)C(=O)NC(C)(C)C [Example 137, [S-(R*,R*)]-Azepane-1-carboxylic acid {1-[1-tert-butylcarbamoyl-2-(4-pyridin-2-ylethynyl-phenyl)-ethylcarbamoyl]-3-methyl-butyl}-amide] | – | – | – | – | – | – | – | – | 2600 | – | –
COC(=O)[C@H](Cc1ccc(OCc2ccccc2)cc1)NC(=O)[C@H](CC(C)C)NC(=O)N1CCCCCC1 [Example 15, [S-(R*,R*)]-2-{2-[(Azepane-1-carbonyl)-amino]-4-methyl-pentanoylamino}-3-(4-benzyloxy-phenyl)-propionic acid methyl ester] | 45 | 99 | 1100 | – | – | – | 72 to 74 | – | – | – | –
COc1cc(NC(=O)N[C@@H](CC(C)C)C(=O)N[C@@H](Cc2ccc(OCc3ccccc3)cc2)C(=O)OC(C)(C)C)cc(OC)c1OC (relative stereo) [Example 67, [S-(R*,R*)]-3-(4-Benzyloxy-phenyl)-2-{4-methyl-2-[3-(3,4,5-trimethoxy-phenyl)-ureido]-pentanoylamino}-propionic acid tert-butyl ester] | – | – | – | – | – | – | – | – | 3000 | 10 | 19
CC(C)C[C@H](NC(=O)N1CCCCCC1)C(=O)N[C@@H](Cc1ccc(OCc2ccccc2)cc1)C(=O)NCCN1CCOCC1 [Example 186, [S-(R*,R*)]-Azepane-1-carboxylic acid {1-[2-(4-benzyloxy-phenyl)-1-(2-morpholin-4-ylethylcarbamoyl)-ethylcarbamoyl]-3-methyl-butyl}-amide] | – | – | 1800 | – | – | – | – | – | 3000 | – | –
CC(C)C[C@H](NS(=O)(=O)N1CCOCC1)C(=O)N[C@@H](Cc1ccc(OCc2ccccc2)cc1)C(=O)OC(C)(C)C [Example 42, [S-(R*,R*)]-3-(4-Benzyloxy-phenyl)-2-[4-methyl-2-(morpholine-4-sulfonylamino)-pentanoylamino]-propionic acid tert-butyl ester] | 50 | 95 | 950 | 64 | – | – | 54 to 57 | – | – | – | –
CC(C)C[C@H](NC(=O)N1CCCCCC1)C(=O)N[C@@H](Cc1ccc(OC(C)(C)C)cc1)C(=O)OC(C)(C)C [Example 12, [S-(R*,R*)]-2-{2-[(Azepane-1-carbonyl)-amino]-4-methyl-pentanoylamino}-3-(4-tert-butoxy-phenyl)-propionic acid tert-butyl ester] | 57 | 95 | 480 | 65 | 38 | 14 | 87 to 90 | 6780 | – | – | –
CC(C)C[C@H](NS(=O)(=O)c1ccc(C(C)C)cc1)C(=O)N[C@@H](Cc1ccc(OCc2ccccc2)cc1)C(=O)OC(C)(C)C [Example 37, [S-(R*,R*)]-3-(4-Benzyloxy-phenyl)-2(S)-[2(S)-(4-isopropyl-benzenesulfonylamino)-4-methyl-pentanoylamino]-propionic acid tert-butyl ester] | 65 | 91 | 280 | – | 9 | 5 | 147 to 148 | – | – | – | –
CC(C)C[C@H](NC(=S)Nc1ccccc1Cl)C(=O)N[C@@H](Cc1ccc(OCc2ccccc2)cc1)C(=O)OC(C)(C)C [Example 48, [S-(R*,R*)]-3-(4-Benzyloxy-phenyl)-2-{2-[3-(2-chloro-phenyl)-thioureido]-4-methyl-pentanoylamino}-propionic acid tert-butyl ester] | 52 | 81 | 1200 | – | – | – | 66 to 67 | – | – | – | –
